Laboratory results taken from patent publication US20100130449A1, “Use of Tri-Substituted Glycerol Compounds for the Treatment of Radiation Injuries” (ALPHAPTOSE GMBH, priority 2006, published 2010).

Assays:
Format in all cases: in vivo
gamma-radiated mice [1] = experiment: Survival of mice after gamma irradiation, single dose of ET18-OCH3 before or after irradiation
neutron irradiated mice [2] = experiment: White blood cell count (hemogram) after ET18-OCH3 and neutron irradiation
Procedure: FIG. 2 depicts the radioprotective effect of ET18-OCH3 (referred to as “ALP”) on the lymphocyte numbers of mice. Mice were treated with a single dose 70 mg/kg ET18-OCH3 (administered subcutaneously) 24 hours before exposure to neutron radiation (radiation dose 2.0 Gy). […]
FIG. 3 depicts the radioprotective effect of ET18-OCH3 (referred to as “ALP”) on the granulocyte numbers of mice. The experiment was performed in an analogous manner as described in FIG. 2.
The radioprotective effect of ET18-OCH3 on lymphocyte and granulocyte numbers in mice is shown in FIG. 2 and FIG. 3, respectively.

neutron irradiated mice [3] = experiment: Cell numbers in the peripheral blood of mice after neutron irradiation; conditions: for Granulocytes, median/interquartile distance / Leukocytes, median/interquartile distance / Lymphocytes, median/interquartile distance / Thrombocytes, median/interquartile distance: 300 cGy neutron
Procedure: Mice were irradiated using a van de Graaf generator with of 3-8 MeV neutrons. […] A single dose of 50 mg/kg ET18-OCH3 was administered to half of the mice by subcutaneous injection.
As the therapy experiments were carried out with an irradiation dose range, in which the hematological syndrome of the radiation injury predominates, the evaluation of the therapeutic effect of the drug on the blood forming (hematopoetic) system is important.

X-ray irradiated mice = experiment: Survival of X-ray irradiated mice, ET18-OCH3 given after irradiation; conditions: for Death/Survival treated: 2 × 25 mg/kg intravenous 6 hours and 12 hours after irradiation
Procedure: The efficacy of 1-O-octadecyl-2-O-methyl-glycero-3-phosphocholine (in the following referred to as “ET18-OCH3”) as a radioprotectant in the treatment of an acute radiation injury that is caused by (mid)lethal radiation doses was analyzed by determining its influence on the survival rate of mice and on the hematological syndrome of the radiation injury in response to different types of radiation.
A single dose of 25 mg/kg ET18-OCH3 was administered at a time intravenously to 25 mice 12 hours after exposure to an X-ray dose of 650 cGy (centiGray). Only one of the 25 treated mice died, as compared to 6 of the 25 mice in the control group.
After an intravenous administration of 25 mg/kg ET18-OCH3 6 hours and 12 hours after X-ray irradiation, respectively, the following results were obtained (Table 1). The chi-square distribution is given for all positive values. The chi-square test was used for comparing the results of the treated versus the control animals.
After an oral administration of 25 mg/kg ET18-OCH3 6 hours and 24 hours after exposure to a X-ray dose of 700 cGy X-ray irradiation, respectively, 2 of 25 treated animals died, as compared to 7 of 25 of the control animals.

neutron irradiated mice [4] = experiment: Survival of mice, ET18-OCH3 given 1 day before neutron irradiation
Source text: The effect of ET18-OCH3 before applying different doses of neutron radiation on the survival rates of mice are summarized in Table 5.

gamma-radiated mice [5] = experiment: Survival of mice after gamma irradiation, single dose of ET18-OCH3 before or after irradiation; remark: listed apart in the source
Procedure: FIG. 1 depicts the radioprotective effect of ET18-OCH3 on the survival rate of mice. ET18-OCH3 was administered as a single dose of 50 mg/kg body weight to each of 40 mice (20 control mice, 20 test mice). 24 hours later, the 20 test mice were exposed to a gamma radiation dose of 7.9 Gy (Gray) and 8.7 Gy, respectively. The survival rates were monitored for 30 days.

neutron irradiated mice [6] = experiment: Survival of mice after neutron radiation, ET18-OCH3 given after irradiation; conditions: 400-420 cGy neutron radiation, 50 mg/kg subcutaneous
Procedure: Mice were irradiated using a van de Graaf generator with of 3-8 MeV neutrons. The radiation doses used in the following analyses were 400, 410, and 420 cGy for each third of the treated and the control mice, respectively. A single dose of 50 mg/kg ET18-OCH3 was administered to half of the mice by subcutaneous injection.

[7] = gamma 750 cGy, 30 mg/kg, a.r. (after radiation)
[8] = gamma 750 cGy, 50 mg/kg, 1 d before irradiation
[9] = gamma 775 cGy, 40 mg/kg, a.r. (after radiation)
[10] = gamma 775 cGy, 50 mg/kg, 2 h before irradiation
[11] = gamma 775 cGy, 50 mg/kg, 1 d before irradiation
[12] = gamma 800 cGy, 40 mg/kg, a.r. (after radiation)
[13] = gamma 800 cGy, 50 mg/kg, 2 h before irradiation
[14] = gamma 830 cGy, 50 mg/kg, 1 d before irradiation
[15] = gamma 870 cGy, 50 mg/kg, 1 d before irradiation
[16] = day 7, 50 mg/kg s.c. 30 min after irradiation
[17] = day 7, 50 mg/kg s.c. 2 h after irradiation
[18] = day 14, 50 mg/kg s.c. 30 min after irradiation
[19] = day 14, 50 mg/kg s.c. 2 h after irradiation
[20] = neutron 425 cGy, 50 mg/kg subcutaneously 1 day before irradiation
[21] = neutron 425 cGy, 70 mg/kg subcutaneously 1 day before irradiation
[22] = neutron 450 cGy, 50 mg/kg subcutaneously 1 day before irradiation
[23] = neutron 450 cGy, 70 mg/kg subcutaneously 1 day before irradiation
[24] = gamma 790 cGy, 50 mg/kg, 1 d before irradiation

## CCCCCCCCCCCCCCCCCCOCC(COP(=O)([O-])OCC[N+](C)(C)C)OC (stereo not drawn) [ET18-OCH3, 1-O-octadecyl-2-O-methyl-glycero-3-phosphocholine]
gamma-radiated mice [1]; [7]
  Death: 1 (6%)
  Survival: 17 (94%)
gamma-radiated mice [1]; [8]
  Death: 0
  Survival: 20 (100%)
gamma-radiated mice [1]; [9]
  Death: 12 (60%)
  Survival: 8 (40%)
gamma-radiated mice [1]; [10]
  Death: 5 (25%)
  Survival: 15 (75%)
gamma-radiated mice [1]; [11]
  Death: 2 (10%)
  Survival: 18 (90%)
gamma-radiated mice [1]; [12]
  Death: 10 (29%)
  Survival: 25 (71%)
gamma-radiated mice [1]; [13]
  Death: 3 (15%)
  Survival: 17 (85%)
gamma-radiated mice [1]; [14]
  Death: 3 (15%)
  Survival: 17 (85%)
gamma-radiated mice [1]; [15]
  Survival: 13 (65%)
gamma-radiated mice [1]; treated irradiated mice, ET18-OCH3 one day before irradiation, probit analysis, untreated irradiated controls 7.47 Gy
  LD50/30 gamma radiation dose: 8.98 Gy
Neutron irradiated mice [2]; 50 mg/kg and 70 mg/kg, neutron irradiation, not statistically significant, 5 experiments, n=90
  reduction of leukocyte numbers (both of lymphocytes and granulocytes) compared to untreated controls: slightly increased
Neutron irradiated mice [2]; leukocyte numbers after neutron irradiation
  difference between the administration of 50 mg/kg and 70 mg/kg: No statistically significant difference
Neutron irradiated mice [2]; starting at day 3 after irradiation, significant at day 7 (4 experiments; n=30, p<0.003)
  leukocyte numbers (both lymphocytes and granulocytes): increase in leukocyte numbers
Neutron irradiated mice [2]; treated animals at mid-lethal irradiation doses, average
  number of lymphocyte relative to the normal value: about one tenth
Neutron irradiated mice [3]; [16]
  Granulocytes, median/interquartile distance: 209/202
  Leukocytes, median/interquartile distance: 975/450
  Lymphocytes, median/interquartile distance: 684/255
  Thrombocytes, median/interquartile distance: 698/427
Neutron irradiated mice [3]; [17]
  Granulocytes, median/interquartile distance: 240/304
  Leukocytes, median/interquartile distance: 675/413
  Lymphocytes, median/interquartile distance: 446/132
  Thrombocytes, median/interquartile distance: 900/315
Neutron irradiated mice [3]; day 10-15 after irradiation, when the irradiated mice died
  concentration of leukocytes and granulocytes in the peripheral blood: significantly increases
Neutron irradiated mice [3]; [18]
  Granulocytes, median/interquartile distance: 3063/3121
  Leukocytes, median/interquartile distance: 8675/11827
  Lymphocytes, median/interquartile distance: 7439/6942
  Thrombocytes, median/interquartile distance: 533/263
Neutron irradiated mice [3]; [19]
  Granulocytes, median/interquartile distance: 4189/2282
  Leukocytes, median/interquartile distance: 9975/5863
  Lymphocytes, median/interquartile distance: 5101/3765
  Thrombocytes, median/interquartile distance: 987/464
X-ray irradiated mice; X-ray dose 650 cGy
  Death/Survival treated: 2/28
X-ray irradiated mice; X-ray dose 700 cGy
  Death/Survival treated: 3/25
X-ray irradiated mice; X-ray dose 750 cGy
  Death/Survival treated: 14/16
X-ray irradiated mice; X-ray dose 800 cGy
  Death/Survival treated: 22/8
X-ray irradiated mice; oral 25 mg/kg 6 hours and 24 hours after X-ray dose of 700 cGy, control 7 of 25 died
  treated animals died: 2 of 25
X-ray irradiated mice; single dose 25 mg/kg intravenously 12 hours after X-ray dose of 650 cGy, control 6 of 25 died
  treated mice died: one of the 25
X-ray irradiated mice; treated animals, 25 mg/kg intravenous 6 and 12 hours after irradiation, untreated controls 688.1±38.6
  LD50/30 X-ray dose: 749±37.1 cGy
X-ray irradiated mice; treated mice compared to control mice
  X-ray mediated lethality: delayed
Neutron irradiated mice [4]; [20]
  Death: 11 (73%)
  Survival: 4 (27%)
Neutron irradiated mice [4]; [21]
  Death: 10 (67%)
  Survival: 5 (33%)
Neutron irradiated mice [4]; [22]
  Death: 8 (26%)
  Survival: 22 (73%)
Neutron irradiated mice [4]; [23]
  Death: 12 (80%)
  Survival: 3 (20%)
Neutron irradiated mice [4]; neutron 475 cGy, 50 mg/kg subcutaneously 1 day before irradiation
  Death: 19 (76%)
gamma-radiated mice [5]; [24]
  Death: 2 (10%)
  Survival: 18 (90%)
gamma-radiated mice [5]; [15]
  Death: 7 (35%)
gamma-radiated mice [5]; similar when given either 24 hours or shortly before gamma irradiation
  radioprotective effect on survival: significant radioprotective effect
Neutron irradiated mice [6]; 30 min
  Survival/Death: 18 (75%)/6 (25%)
Neutron irradiated mice [6]; 2 h
  Survival/Death: 13 (54%)/11 (46%)
Neutron irradiated mice [6]; 6 h
  Survival/Death: 12 (52%)/11 (48%)
